{"source": "patent US20090105251A1", "about": "“Renin inhibitors” (priority 2007, published 2009)"}
{"molecular_target": "T1, Recombinant human renin (Homo sapiens, UniProt P00797)", "T1 construct": "isolate the active form (residues 67-406); made in house", "T1 sequence (P00797 67-406)": "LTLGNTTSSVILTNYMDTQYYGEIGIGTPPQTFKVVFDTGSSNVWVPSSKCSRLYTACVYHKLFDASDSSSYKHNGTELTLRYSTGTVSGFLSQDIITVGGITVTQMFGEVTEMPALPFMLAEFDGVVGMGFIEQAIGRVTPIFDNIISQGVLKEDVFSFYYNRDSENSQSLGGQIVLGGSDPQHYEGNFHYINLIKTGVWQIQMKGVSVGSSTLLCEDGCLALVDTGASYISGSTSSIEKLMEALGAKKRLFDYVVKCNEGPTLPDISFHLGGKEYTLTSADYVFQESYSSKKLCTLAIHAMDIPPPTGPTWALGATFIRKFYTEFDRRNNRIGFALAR", "assay": "In vitro enzymatic activity assay of renin inhibitors (fluorogenic peptide substrate)", "type": "biochemical", "conditions": "recombinant human renin 3 nM, 1 μM substrate QXL520/HiLyteFluo488 peptide, pH 7.4, 37° C., fluorescence; values given as ranges; read-out: IC50 of Exemplified Compounds Against Renin, IC50", "description": "Test compounds in varying concentrations may be reacted with recombinant human renin in the presence of substrate, e.g., QXL520-γ-Abu-Ile-His-Pro-Phe-His-Leu-Val-Ile-His-Thr-Lys (HiLyteFluo488)-Arg-OH (Anaspec, San Jose, Calif.). The reaction can be followed kinetically using fluorescence (excitation λ=485 nm; emission λ=538 nm). Inhibition constants (IC50) may be calculated by non-linear curve fitting of the compound concentrations and fluorescence intensities to the standard IC50 equation.\nSolutions of test compounds in varying concentrations (≦2 mM final concentration) are prepared in dimethyl sulfoxide (DMSO) and then diluted into assay buffer comprising 50 mM Hepes, 1 mM EDTA, 1 mM DTT, 0.1 mg/ml BSA, 0.01% Brij35, pH 7.4. Alternatively, the assay can be performed with a high BSA concentration, wherein the buffer contains an additional 2% BSA.\nRecombinant human renin (3 nM final concentration) is added to the dilutions and pre-incubated with the compounds for 10 minutes at 37° C. As described in Examples A-C above, human renin can be obtained by expressing preprorenin (residue 1-406) in mammalian cells, treating the prorenin (residues 24-406) contained in the culture supernatant with trypsin, and isolate the active form (residues 67-406). After pre-incubation, the reaction is initiated with 1 μM of substrate QXL520-γ-Abu-Ile-His-Pro-Phe-His-Leu-Val-Ile-His-Thr-Lys (HiLyteFluo488)-Arg-OH (Anaspec, San Jose, Calif.). The final DMSO in the assay is 5%. The total volume of the reaction mixture is 20 μL, which can be placed on Greiner 384-well small volume plates.\nRenin activity may be determined via fluorescence (excitation λ=485 nm; emission λ=538 nm), e.g., on a Molecular Devices SPECTROmax GEMINI XPS. The fluorescence intensity is determined upon the addition of substrate and determined again after incubation at 37° C. for one hour. The fluorescence intensity of a blank (no inhibition) using vehicle alone is also determined. Renin activity is linearly proportional to the change in fluorescence observed (final−initial).\nThe percent inhibition of renin at a given compound concentration is defined as:\n100%×[1−(Fcompound/Fblank)]\nwhere Fcompound is the observed fluorescence at a given concentration of test compound and Fblank is the observed fluorescence in the presence of vehicle alone.\nThe pIC50 value (negative log of the molar concentration of the compound that produces 50% inhibition) of a test compound is calculated by non-linear least squares curve fitting of the equation:\nPercent Inhibition=100%/(1+(10^−pIC50/10^log [I]))\nto percent inhibition versus compound concentration. The 50% inhibitory concentration (IC50) of a test compound is calculated by raising 10 to the negative pIC50 (10^−pIC50).", "units": {"IC50": "µM"}}
{"smiles": "Cc1cc2cc(C(=O)N3CCNC[C@H]3Cc3ccccc3)n(Cc3ccccc3)c2s1", "note": "[Example 34, (R)-(6-benzyl-2-methyl-6H-thieno[2,3-b]pyrrol-5-yl)(2-benzylpiperazin-1-yl)methanone]", "IC50": "1 to 50"}
{"smiles": "CC1(C)Cc2cccc(C(=O)N3CCNC[C@H]3Cc3ccccc3)c2O1", "note": "[Example 35, (R)-(2-benzylpiperazin-1-yl)(2,2-dimethyl-2,3-dihydrobenzofuran-7-yl)methanone]", "IC50": "1 to 50"}
{"smiles": "O=C(c1cc(-c2ccc(Cl)cc2)cs1)N1CCNC[C@H]1Cc1ccccc1", "note": "[Example 36, (R)-(2-benzylpiperazin-1-yl)(4-(4-chlorophenyl)thiophen-2-yl)methanone]", "IC50": "1 to 50"}
{"smiles": "Cc1oc(-c2ccccc2)nc1Cn1nc(C(=O)N2CCNC[C@H]2Cc2ccccc2)c2ccccc21", "note": "[Example 37, (R)-(2-benzylpiperazin-1-yl)(1-((5-methyl-2-phenyloxazol-4-yl)methyl)-1H-indazol-3-yl)methanone]", "IC50": "1 to 50"}
{"smiles": "CC(C)(C)n1ncc(C(=O)N2CCNC[C@H]2Cc2ccccc2)c1-c1ccccc1", "note": "[Example 38, (R)-(2-benzylpiperazin-1-yl)(1-tert-butyl-5-phenyl-1H-pyrazol-4-yl)methanone]", "IC50": "1 to 50"}
{"smiles": "CC(=O)NCCc1ccccc1Oc1ccccc1-c1ccsc1C(=O)N1CCNC[C@H]1Cc1ccccc1", "note": "[Example 39, N-(2-(2-(2-((R)-2-benzylpiperazine-1-carbonyl)thiophen-3-yl)phenoxy)phenethyl)acetamide]", "IC50": "< 1"}
{"smiles": "CC(=O)NCc1cccnc1Oc1ccccc1-c1ccsc1C(=O)N1CCNC[C@H]1Cc1ccccc1", "note": "[Example 40, N-((2-(2-(2-((R)-2-benzylpiperazine-1-carbonyl)thiophen-3-yl)phenoxy)pyridin-3-yl)methyl)acetamide]", "IC50": "1 to 50"}
{"smiles": "O=C(c1ccsc1-c1ccccc1CN1CCOCC1)N1CCNC[C@H]1Cc1ccccc1", "note": "[Example 41, ((R)-2-benzylpiperazin-1-yl)(2-(2-(morpholinomethyl)phenyl)-thiophen-3-yl)methanone]", "IC50": "1 to 50"}
{"smiles": "O=C(c1cccn1-c1ccccc1Oc1ccccc1)N1CCNC[C@H]1Cc1ccccc1", "note": "[Example 42, ((R)-2-benzylpiperazin-1-yl)(1-(2-phenoxyphenyl)-1H-pyrrol-2-yl)methanone]", "IC50": "1 to 50"}
{"smiles": "O=C(c1cc(-c2ccccc2Oc2ccccc2)cs1)N1CCNC[C@H]1Cc1ccccc1", "note": "[Example 43, (R)-(2-benzylpiperazin-1-yl)(4-(2-phenoxyphenyl)thiophen-2-yl)methanone]", "IC50": "1 to 50"}
{"smiles": "O=C(c1ccc(-c2ccccc2Oc2ccccc2)s1)N1CCNC[C@H]1Cc1ccccc1", "note": "[Example 44, (R)-(2-benzylpiperazin-1-yl)(5-(2-phenoxyphenyl)thiophen-2-yl)methanone]", "IC50": "1 to 50"}
{"smiles": "O=C(c1ccc(-c2ccccc2Oc2ccccc2)o1)N1CCNC[C@H]1Cc1ccccc1", "note": "[Example 45, (R)-(2-benzylpiperazin-1-yl)(5-(2-phenoxyphenyl)furan-2-yl)methanone]", "IC50": "1 to 50"}
{"smiles": "O=C(c1nnc(-c2ccccc2-c2ccccc2)o1)N1CCNC[C@H]1Cc1ccccc1", "note": "[Example 46, (R)-(2-benzylpiperazin-1-yl)(5-(biphenyl-2-yl)-1,3,4-oxadiazol-2-yl)methanone]", "IC50": "1 to 50"}
